Laboratory results as given in patent US10766889B2, “Aryl-2,2′-tandem bisthiazole compound and preparation method and use thereof” (SHANGHAI INSTITUTE OF MATERIA MEDICA, CHINESE ACADEMY OF …, priority 2016, dated 2020).
Read-outs that look alike come from different tables or passages of the source. Values belong to the compound of their own block, whether it stands above or below them.

Tests used:
[1] = test system: human multiple myeloma cell line RPMI 8226; test: Cell level anti-tumor activity test, CCK-8, multiple myeloma cells; assay type: cell-based; conditions: RPMI-8226, 72 h
Procedure: According to the cell growth rate, the multiple myeloma cells in the logarithmic growth phase were inoculated into the 96-well culture plate at 100 μL/well, and then 1 μL/well of compound solution was added, and three replicate wells were set for each concentration, and the DMSO solvent control at corresponding concentration was also set.
CCK-8 staining method: after the drug was applied, 10 μL of CCK-8 solution was added to each well, and incubated at 37° C. for 3 h. The OD value at 450 nm and 690 nm was measured by microplate reader.
The inhibition rate (% Inhibiton) and activity (% Activity) of the test substance on the proliferation of multiple myeloma cells were calculated according to the following formula, wherein ODsample refers to the absorbance value of the administration hole (OD450-OD690). OD DMSO refers to the absorbance of the DMSO control well (OD450-OD690).
The logarithm of the concentration was plotted against the activity percentage (% Activity), and the fitted curve was calculated by nonlinear regression. The value of IC50 was calculated by using the GraphPad Prism5 software log(inhibitor) vs response—Variable slope parameter setting. Each set of experiments was repeated three times independently, while 3 replicate wells per concentration.

[2] = test system: tumor cell; conditions: WO2012152208, background; read-out: IC50 tumor cell proliferation inhibitory activity; cited from earlier work
[3] = test system: human myeloma RPMI 8226 NOD/SCID mouse xenografts; test: Pharmacological experiment in human myeloma RPMI 8226 NOD/SCID mouse transplantation model; assay type: in vivo
From the text: The efficacy of compound H08 in an animal model of human multiple myeloma was investigated.
NOD/SCID mice, female, 5-6 weeks old, body weight 20±3 g, provided by Shanghai Lingchang Biotechnology Co., Ltd., production certificate number: SCXK (Shanghai) 2013-0018. Number of animals per group: 6. IACUC number: 2013-0007 (Nanmo).
Human myeloma RPMI 8226 cell line was preserved by Li Jia et al., Shanghai Institute of Materia Medica. The cell line was inoculated to the right axillary fossa of NOD/SCID mice, and the amount of cells inoculated was 1×10^7 cells each mouse. After the transplanted tumor was formed, it was used in NOD/SCID mice after 2 passages.
The tumor tissue in the vigorous growth period was cut into 1.5 mm^3, and inoculated subcutaneously in the right axilla of the NOD/SCID mice under aseptic conditions. The diameter of the transplanted tumor of NOD/SCID mice were measured with a vernier caliper and the animals were randomly grouped when the tumor growed up to 100-300 mm^3. The grouping scheme is shown in Table 5, and the solvent control group was given an equal amount of blank solvent. The diameter of the transplanted tumor was measured twice a week during the entire experiment, and the body weight of the mice was weighed as well. The tumor volume (TV) was calculated as: TV=½×a×b^2, wherein a and b represent length and width, respectively. The relative tumor volume (RTV) was calculated based on the measured results and the formula was: RTV=Vt/V0. Wherein V0 is the tumor volume measured before grouping and dosing (d0), and Vt is the tumor volume at each measurement.

[4] = Preliminary metabolic experiments, oral bioavailability in mice; conditions: mouse, in vivo
[5] = background, subsequent studies on 201410136196.7 compounds; cited from earlier work
[6] = biological target: T1, human HDAC3 (Homo sapiens, UniProt O15379); test: Inhibition activity test of histone deacetylase 3 (fluorescence, Ac-Lys-Tyr-Lys(Ac)-AMC substrate); assay type: biochemical; conditions: mean of 3 experiments
T1 construct: made in house
T1 sequence (O15379 whole entry): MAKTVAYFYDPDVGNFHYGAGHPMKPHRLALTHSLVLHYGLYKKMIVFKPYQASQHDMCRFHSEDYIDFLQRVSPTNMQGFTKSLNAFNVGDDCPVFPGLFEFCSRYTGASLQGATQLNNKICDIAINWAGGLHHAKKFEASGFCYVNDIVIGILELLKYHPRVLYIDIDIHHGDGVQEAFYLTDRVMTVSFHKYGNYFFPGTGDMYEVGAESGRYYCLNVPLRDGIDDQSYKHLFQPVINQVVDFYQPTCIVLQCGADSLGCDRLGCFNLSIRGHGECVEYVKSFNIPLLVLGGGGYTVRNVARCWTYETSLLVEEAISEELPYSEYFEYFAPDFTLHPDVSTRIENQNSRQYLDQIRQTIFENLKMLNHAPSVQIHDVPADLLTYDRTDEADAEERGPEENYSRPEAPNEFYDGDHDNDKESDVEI
Procedure: (§1) The inhibitory activity of the example compounds against human histone deacetylases 1, 3 and 6 (i.e., human HDAC1, HDAC3 and HDAC6) was tested.
(§2) Substrates: HDAC1, HDAC 3: Ac-Lys-Tyr-Lys (Ac)-AMC; HDAC6: Boc-lys (Ac)-AMC; all purchased from Shanghai Jill Biochemical Co., Ltd.
(§3) The activity of HDAC1 and HDAC3 was detected using Ac-Lys-Tyr-Lys(Ac)-AMC as substrate, and the activity of HDAC6 was detected using Boc-Lys(Ac)-AMC as substrate, and both were detected by fluorescence detection. […] The initial velocity of the reaction is calculated by detecting the change in the fluorescence signal over time.
(§4) The test compound, enzyme and reaction buffer were well mixed and the substrate was added to start the reaction. […]
(§5) The fluorescence signal intensity at 460 nm was measured, and then the activity percentage (% Activity) of each concentration groups of the sample was calculated. […]
(§6) The logarithm of the concentration was plotted against the percentage of activity, and then the nonlinear regression was used to calculate the fit curve. The value of IC50 was calculated by the software GraphPad Prism 5 formula log(inhibitor) vs. response—Variable slope.
(§7) Each of the above experiments was repeated 3 times, and there were more than 3 replicate wells for each experiment. The average IC50 value of the three experiments was determined as the final indicator of the compound inhibition ability.

[7] = biological target: T2, human HDAC6 (Homo sapiens, UniProt Q9UBN7); test: Inhibition activity test of histone deacetylase 6 (fluorescence, Boc-Lys(Ac)-AMC substrate); assay type: biochemical; conditions: mean of 3 experiments
T2 construct: made in house
T2 sequence (Q9UBN7 1-1215): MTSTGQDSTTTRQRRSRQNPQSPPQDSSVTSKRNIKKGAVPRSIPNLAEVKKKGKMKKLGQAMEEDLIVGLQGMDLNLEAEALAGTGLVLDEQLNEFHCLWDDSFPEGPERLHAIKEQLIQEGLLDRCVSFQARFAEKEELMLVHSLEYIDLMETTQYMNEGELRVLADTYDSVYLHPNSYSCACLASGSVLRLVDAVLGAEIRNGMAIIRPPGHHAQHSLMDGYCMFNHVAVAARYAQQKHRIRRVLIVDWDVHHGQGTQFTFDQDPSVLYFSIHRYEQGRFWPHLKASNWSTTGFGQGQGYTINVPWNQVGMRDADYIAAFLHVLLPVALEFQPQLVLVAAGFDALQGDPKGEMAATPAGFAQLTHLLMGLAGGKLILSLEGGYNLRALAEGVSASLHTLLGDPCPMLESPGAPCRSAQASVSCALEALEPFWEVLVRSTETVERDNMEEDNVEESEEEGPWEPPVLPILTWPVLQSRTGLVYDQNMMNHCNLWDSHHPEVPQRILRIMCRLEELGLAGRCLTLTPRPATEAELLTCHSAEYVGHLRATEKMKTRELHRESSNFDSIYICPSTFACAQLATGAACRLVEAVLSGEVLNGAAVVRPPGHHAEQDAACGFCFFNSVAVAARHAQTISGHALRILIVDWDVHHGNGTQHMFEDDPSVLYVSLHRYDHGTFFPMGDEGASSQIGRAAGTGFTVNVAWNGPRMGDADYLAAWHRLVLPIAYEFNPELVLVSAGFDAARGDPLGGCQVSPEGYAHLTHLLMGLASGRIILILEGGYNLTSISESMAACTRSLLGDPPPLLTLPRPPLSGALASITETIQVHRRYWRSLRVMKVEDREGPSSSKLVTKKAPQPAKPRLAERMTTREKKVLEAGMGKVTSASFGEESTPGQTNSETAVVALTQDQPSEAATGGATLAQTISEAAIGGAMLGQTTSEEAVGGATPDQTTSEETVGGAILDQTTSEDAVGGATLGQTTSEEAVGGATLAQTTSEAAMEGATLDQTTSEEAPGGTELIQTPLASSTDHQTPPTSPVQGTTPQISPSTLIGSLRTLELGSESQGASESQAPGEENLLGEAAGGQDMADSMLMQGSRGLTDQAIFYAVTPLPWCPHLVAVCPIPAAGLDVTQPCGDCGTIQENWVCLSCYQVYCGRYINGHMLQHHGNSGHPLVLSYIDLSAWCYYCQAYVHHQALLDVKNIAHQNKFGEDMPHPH
Procedure: as §1, §2, §3, §4, §5, §6, §7

[8] = biological target: T3, human HDAC1 (Homo sapiens, UniProt Q13547); test: Inhibition activity test of histone deacetylase 1 (fluorescence, Ac-Lys-Tyr-Lys(Ac)-AMC substrate); assay type: biochemical; conditions: mean of 3 experiments
T3 construct: made in house
T3 sequence (Q13547 whole entry): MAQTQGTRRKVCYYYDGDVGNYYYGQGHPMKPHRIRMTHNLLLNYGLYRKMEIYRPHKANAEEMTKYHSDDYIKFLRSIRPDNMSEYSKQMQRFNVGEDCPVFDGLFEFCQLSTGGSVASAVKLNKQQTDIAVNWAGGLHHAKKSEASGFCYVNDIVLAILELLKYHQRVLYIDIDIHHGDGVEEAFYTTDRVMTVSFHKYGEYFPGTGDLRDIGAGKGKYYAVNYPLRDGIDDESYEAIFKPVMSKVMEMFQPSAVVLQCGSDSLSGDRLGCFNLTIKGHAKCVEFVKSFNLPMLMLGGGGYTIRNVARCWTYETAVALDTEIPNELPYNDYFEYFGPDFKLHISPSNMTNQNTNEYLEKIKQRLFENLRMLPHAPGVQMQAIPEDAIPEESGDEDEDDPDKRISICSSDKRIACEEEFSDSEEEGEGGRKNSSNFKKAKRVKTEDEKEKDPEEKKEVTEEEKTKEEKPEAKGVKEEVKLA
Procedure: as §1, §2, §3, §4, §5, §6, §7

[9] = test system: promyeloid leukemia HL60; test: Tumor cell proliferation inhibition, CCK-8; assay type: cell-based; conditions: Homo sapiens, HL-60, 72 h, read-out: IC50 (mean ± SD) promyeloid leukemia HL60
Procedure: (§8) After the drug was applied, 10 μL of CCK-8 solution was added to each well in Ramos, HL-60, Molt-4, Raji, CCRF-CEM, and SU-DHL-6 tumor cell line experiments, and incubated at 37° C. for 2 h. The OD value at 450 nm was measured by a microplate reader. […] After dried by convert placing in an oven, the plate was taken out and 100 μL of SRB solution (4 mg/mL SRB powder dissolved in 1% glacial acetic acid) was added into each well. After standed at room temperature for 15 minutes, it was washed five times with 1% glacial acetic acid to completely remove the SRB which has not bounded to the plate protein. After dried by convert placing in an oven, 150 μL of 10 mM Tris solution was added into each well, and the OD value at 560 nm was measured by a microplate reader.
(§9) The inhibition rate of tumor cell proliferation was calculated according to the following formula. The half-inhibition amount IC50 value was calculated by Log it method. Inhibition rate=(control group OD value−administration group OD value)/control group OD value×100%. Each set of experiments was repeated three times independently, while 3 replicate wells per concentration.

[10] = test system: Liver cancer BEL-7404; test: Tumor cell proliferation inhibition, SRB; assay type: cell-based; conditions: Homo sapiens, 72 h, read-out: IC50 (mean ± SD) Liver cancer BEL-7404
Procedure: as §8, §9

[11] = test system: stomach cancer MKN-74; test: Tumor cell proliferation inhibition, SRB; assay type: cell-based; conditions: Homo sapiens, 72 h, read-out: IC50 (mean ± SD) stomach cancer MKN-74
Procedure: as §8, §9

[12] = test system: Acute lymphocytic leukemia T lymphocyte CCRF; test: Tumor cell proliferation inhibition, CCK-8; assay type: cell-based; conditions: Homo sapiens, 72 h, read-out: IC50 (mean ± SD) Acute lymphocytic leukemia T lymphocyte CCRF
Procedure: as §8, §9

[13] = test system: lymphoma Ramos; test: Tumor cell proliferation inhibition, CCK-8; assay type: cell-based; conditions: Homo sapiens, 72 h, read-out: IC50 (mean ± SD) lymphoma Ramos
Procedure: as §8, §9

[14] = test system: Human blood lymphoma Raji; test: Tumor cell proliferation inhibition, CCK-8; assay type: cell-based; conditions: 72 h, read-out: IC50 (mean ± SD) Human blood lymphoma Raji
Procedure: as §8, §9

[15] = test system: Lung Cancer A549; test: Tumor cell proliferation inhibition, SRB; assay type: cell-based; conditions: Homo sapiens, 72 h, read-out: IC50 (mean ± SD) Lung Cancer A549
Procedure: The antitumor activity test of the example compounds was carried out, and the in vitro antitumor activities of the compounds were evaluated by measuring the growth inhibitory activities of the compounds against a plurality of human tumor cell lines.
Tumor cells (except MDA-MB-231) were routinely cultured under 37° C., 5% CO2.
According to the cell growth rate, the tumor cells in the logarithmic growth phase were inoculated into 96-well culture plates at 90 μL/well, and adherently grown for 24 h and then added with 10 μL/well, and each concentration was set to three replicate wells, and DMSO vehicle controls and cell-free wells at corresponding concentration were also set. Tumor cells (except MDA-MB-231) were cultured for 72 h under conditions of 37° C. and 5% CO2 (MDA-MB-231 cells were cultured at 37° C. without CO2). […] The OD value at 450 nm was measured by a microplate reader. […] After dried by convert placing in an oven, 150 μL of 10 mM Tris solution was added into each well, and the OD value at 560 nm was measured by a microplate reader.
The inhibition rate of tumor cell proliferation was calculated according to the following formula. The half-inhibition amount IC50 value was calculated by Log it method. […]

[16] = test system: Embryonic lung cells MRC-5; test: Cell proliferation inhibition, SRB; assay type: cell-based; conditions: Homo sapiens, MRC5, 72 h, read-out: IC50 (mean ± SD) Embryonic lung cells MRC-5
Procedure: as §8, §9

[17] = test system: Acute lymphoblastic leukemia MOLT-4; test: Tumor cell proliferation inhibition, CCK-8; assay type: cell-based; conditions: Homo sapiens, 72 h, read-out: IC50 (mean ± SD) Acute lymphoblastic leukemia MOLT-4
Procedure: as §8, §9

[18] = test system: Lung Cancer EBC-1; test: Tumor cell proliferation inhibition, SRB; assay type: cell-based; conditions: Homo sapiens, EBC-1, 72 h, read-out: IC50 (mean ± SD) Lung Cancer EBC-1
[19] = read-out: IC50 (growth inhibition, RPMI 8226)
[20] = 100 mg/kg bid, p.o., 3 weeks, d21
[21] = 25 mg/kg, p.o., once/day, 3 weeks
[22] = 25 mg/kg, p.o., once/day, 3 weeks, d21
[23] = 50 mg/kg, p.o., once/day, 3 weeks
[24] = 50 mg/kg, p.o., once/day, 3 weeks, d21
[25] = read-out: IC50 (proliferation of RPMI 8226)
[26] = 1 mg/kg, i.v., twice/week for 3 weeks
[27] = 1 mg/kg, i.v., twice/week for 3 weeks, d21

SMILES: C[C@H](NC(=O)c1nc(-c2ncc(-c3ccc(F)cc3)s2)sc1C1CC1)c1ccc(C(=O)NO)cc1 [Compound H09]
IC50 [1, 19]: 18 ± 6 nM

SMILES: CC(NC(=O)c1nc(-c2nccs2)sc1C1CC1)c1ccc(C(=O)NO)cc1 (stereo not shown) [Compound H01]
IC50 [1, 19]: 182 ± 15 nM

SMILES: C[C@H](NC(=O)c1nc(-c2nc3c(s2)CCCC3)sc1C1CC1)c1ccc(C(=O)NO)cc1 [Compound H07]
IC50 [1, 19]: 139 ± 19 nM

SMILES: Cc1cnc(-c2nc(C(=O)N[C@@H](C)c3ccc(C(=O)NO)cc3)c(C3CC3)s2)s1 [Compound H05]
IC50 [1, 19]: 123 ± 43 nM

SMILES: C[C@H](NC(=O)c1nc(-c2ncc(-c3ccccc3)s2)sc1C1CC1)c1ccc(C(=O)NO)cc1 [Compound H08]
TV d0 (average ± SD) [3, 21]: 154 ± 44 mm^3
body weight d0 [3, 21]: 22.1 ± 1.3 g
RTV (Average ± SD) [3, 22]: 8.40 ± 1.35
TV d21 (average ± SD) [3, 22]: 1,279 ± 353 mm^3
body weight d21 [3, 22]: 23.7 ± 0.8 g
TV d0 (average ± SD) [3, 23]: 154 ± 45 mm^3
body weight d0 [3, 23]: 22.2 ± 1.1 g
RTV (Average ± SD) [3, 24]: 5.48 ± 2.99
TV d21 (average ± SD) [3, 24]: 821 ± 406 mm^3
body weight d21 [3, 24]: 22.7 ± 0.9 g
change in body weight of the mice during the experiment ([3]; oral 50 mg/kg for three weeks): no change in body weight
bioavailability [4]: 34.4%
IC50 [1, 19]: 8 nM
IC50 [1, 25]: ~8 nM

SMILES: O=C(NCCC(=O)C(F)(F)F)c1nc(-c2nccs2)sc1C1CC1 [GCJ403]
oral bioavailability [5]: 14.7%

SMILES: C[C@H](NC(=O)c1nc(-c2nccs2)sc1C1CC1)c1ccc(C(=O)NO)cc1 [Compound H02]
IC50 [1, 19]: 28 ± 10 nM

SMILES: CC(C)C[C@H](NC(=O)[C@H](Cc1ccccc1)NC(=O)c1cnccn1)B(O)O [PS341, Bortezomib, reference compound]
TV d0 (average ± SD) [3, 26]: 155 ± 48 mm^3
body weight d0 [3, 26]: 21.9 ± 1.0 g
RTV (Average ± SD) [3, 27]: 7.19 ± 3.58
T/C relative tumor growth rate [3, 27]: 45.27%
TV d21 (average ± SD) [3, 27]: 1,077 ± 538 mm^3
body weight d21 [3, 27]: 23.3 ± 1.7 g

SMILES: O=C(CCCCCCC(=O)Nc1ccccc1)NO [SAHA, vorinostat]
IC50 [18]: 1550 ± 474 nM
IC50 [15]: 2910 ± 678 nM

SMILES: Cc1csc(-c2nc(C(=O)N[C@@H](C)c3ccc(C(=O)NO)cc3)c(C3CC3)s2)n1 [Compound H06]
IC50 [1, 19]: 50 ± 22 nM

Second part, led by results:

IC50 [1, 19]: 690 ± 410 nM
SMILES: O=C(CCNC(=O)c1nc(-c2nccs2)sc1C1CC1)NO [bexanostat, reference compound]
IC50 [2]: < 400 nM
TV d0 (average ± SD) ([3]; 100 mg/kg bid, p.o., 3 weeks): 155 ± 46 mm^3
body weight d0 ([3]; 100 mg/kg bid, p.o., 3 weeks): 22.2 ± 1.4 g
RTV (Average ± SD) [3, 20]: 4.83 ± 0.51
TV d21 (average ± SD) [3, 20]: 620 ± 87 mm^3
body weight d21 [3, 20]: 19.8 ± 1.0 g

IC50 [6]: 6.15 ± 0.25 nM
IC50 [7]: 9.78 ± 0.02 nM
IC50 [8]: 6.71 ± 0.11 nM
IC50 [1, 19]: 8 nM
IC50 [1, 25]: ~8 nM
SMILES: O=C(NO)c1ccc(CNC(=O)c2nc(-c3ncc(-c4ccccc4)s3)sc2C2CC2)cc1 [Compound H12]

IC50 [9]: 12.3 ± 0.24 nM
IC50 [10]: 18.6 ± 1.51 nM
IC50 [11]: 29.2 ± 0.97 nM
IC50 [12]: 13.7 ± 0.93 nM
IC50 [13]: 7.14 ± 0.42 nM
IC50 [14]: 12.3 ± 1.61 nM
IC50 [15]: 48.9 ± 7.01 nM
IC50 [17]: 15 ± 8.18 nM
SMILES: Cc1[nH]c2ccccc2c1CCNCc1ccc(/C=C/C(=O)NO)cc1 [LBH589, panobinostat]
IC50 [16]: 76.9 ± 7.22 nM

IC50 [1, 19]: 12 ± 4 nM
SMILES: COc1ccc(-c2cnc(-c3nc(C(=O)N[C@@H](C)c4ccc(C(=O)NO)cc4)c(C4CC4)s3)s2)cc1 [Compound H10]

IC50 [1, 19]: 326 ± 18 nM
SMILES: C[C@@H](NC(=O)c1nc(-c2ncc(-c3ccccc3)s2)sc1C1CC1)c1ccc(C(=O)NO)cc1 [Compound H11]
